# Where a name gives a salt, the structure may show the parent alone.
# Assays:
# [1] = system: subjects undergoing bunionectomy; assay: Postsurgical opioid consumption, opioid-free subjects and time to first opioid rescue, clinical trial #1; format: in vivo, human
# Description: Clinical Study #1 was a Phase 3, multicenter, randomized, double-blind, active-controlled study in 180 subjects undergoing bunionectomy. Subjects received a sciatic (in the popliteal fossa) nerve block with a single dose of either […] 266 mg ([…] 133 mg (EXP133), or 0.25% bupivacaine HCl (50 mg; BUP50). The study was conducted in two parts (Part A and Part B). Part A was to be completed and analyzed before enrollment in Part B was initiated. Part A was a 3-arm cohort with 66 subjects undergoing bunionectomy to obtain information on pharmacokinetics (PK), pharmacodynamics (PD), efficacy, and safety. Subjects were randomized (1:1:1) to the EXP266, EXP133, and BUP50 treatment arms. Part B was a 2-arm cohort with 119 subjects undergoing bunionectomy to evaluate the efficacy and safety of […] compared with bupivacaine HCl. The dose of the […] arm in Part B was determined based on the interim analysis of the Part A cohort results. On the day of surgery, subjects received an ultrasound-guided sciatic (in the popliteal fossa) nerve block with one of the following treatments: • EXP266 arm: subjects randomized to this treatment arm received 20 mL (266 mg) […] mixed with 10 mL saline (Part A only; per interim analysis was not selected for Part B) • EXP133 arm: subjects randomized to this treatment arm received 10 mL (133 mg) […] mixed with 20 mL saline (Part A and B) • BUP50 arm: subjects randomized to this treatment arm received 20 mL (50 mg) 0.25% bupivacaine HCl mixed with 10 mL saline (Part A and B) Postsurgical pain for breakthrough pain. An unscheduled pain intensity assessment using the NRS (measured as “On a scale from 0 to 10, where 0 equals no pain and 10 equals the worst possible pain, how much pain are you experiencing in your operative foot right now?”) was to be completed immediately prior to administration of any breakthrough pain medication up to 96 h post-surgery. Medications were administered PRN; opioids were not to be given on a pre-determined schedule. […] All postsurgical analgesics administered, were to be recorded through hospital discharge. […]
# [2] = system: subjects undergoing bunionectomy; assay: Safety: treatment-emergent adverse events, SAEs, AESIs, vital signs, EKG through POD14, clinical trial #1; format: in vivo, human
# From the text: Safety assessments included monitoring of AEs from the time of randomization through POD 14. Safety endpoints include incidence of treatment-emergent AEs and SAEs from the start of the nerve block procedure through POD 14.
# Safety endpoints included incidence of treatment emergent adverse events (AEs) and serious adverse events (SAEs) from start of the nerve block procedure through POD14.
# Adverse event verbatim terms are mapped to preferred terms and related system organ class using the Medical Dictionary for Regulatory Activities (MedDRA). Events that start prior to the start of study drug administration are identified in a by-subject listings. Incidence rates of TEAEs and the proportion of subject prematurely withdrawn from the study due to a TEAE is shown for each treatment arm. […] Incidence rates of SAEs is shown for each treatment arm.
# An AE that occurred after administration of the study treatment was considered a treatment-emergent adverse event (TEAE). A continuous AE with varying grades of severity was to be recorded as 1 AE. The highest grade of severity experienced by that subject during the course of the continuous AE was to be recorded.
# General guidelines are provided below: • Unrelated: A causal relationship between the study drug and the AE could be easily ruled out (e.g., based on the temporal sequence, absence of a reasonable pathophysiological mechanism, or direct evidence of actual cause). • Unlikely: A clinical event with a temporal relationship to study drug administration that made a causal relationship improbable and in which other drugs, chemicals, or underlying disease provided a plausible explanation. • Possible: A clinical event with a reasonable time sequence to administration of the study drug but that could also be explained by a concurrent disease or other drugs or chemicals. • Probable: A clinical event with a reasonable time sequence to administration of the study drug unlikely to be attributed to a concurrent disease or other drugs or chemicals and that followed a clinically reasonable response on withdrawal (dechallenge). • Definite: The pharmacological properties of the study drug(s) or of the substance class, and the course of the AE after dechallenge and, if applicable, after rechallenge, and/or specific test indicated involvement of the study drug(s) in the occurrence/worsening of the AE, and no indication of other causes existed.
# Based on review of all peripheral nerve blocks, the following conditions were considered to be Adverse Events of Special Interest (AESIs) upon review of the AEs: • Falls • Persistent tingling • Persistent numbness • Persistent weakness • Hypersensitivity • Seizures • Tremors • Dizziness • Hematoma formation • Cardiovascular depression • Dyspnea • Cardiovascular arrest • Altered sensorium • Visual disturbances • Local anesthetic systemic toxicity
# However, death, in and of itself, was not an AE; it was an outcome. The cause of death was the AE.
# [3] = EXP266 Part A, EXP133 and BUP50 Part A+B
smiles,measurement,setting,value
"CCCCN1CCCCC1C(=O)Nc1c(C)cccc1C (stereo not drawn) [BUP50, bupivacaine HCl]",estimate of the proportion of opioid-free subjects,"[1]; 0 to 96 h post-surgery, EXP266 Part A, EXP133 and BUP50 Part A+B",9.8%
same,proportion of subjects who received opioid breakthrough medication,[1]; [3],90.2%
same,median time to first rescue medication,"[1]; post-surgery, Kaplan-Meier",20.68 h
same,subjects with a clinically significant abnormal EKG finding,"[2]; EXP133 on POD2, BUP50 on POD1",1 subject
same,subjects with treatment-emergent SAEs related to study drug,"[2]; EXP266: hypertension and pyrexia, BUP50: atrioventricular block second degree, both discontinued",1 subject
same,proportion of subjects with a treatment-related TEAE,[2]; [3],2.4%
same,subjects that had SAEs,"[2]; EXPAREL (266 mg), bupivacaine HCl",1 subject
same,AESI of atrioventricular block second degree considered possibly related to study drug,"[2]; human, in vivo",1 subject
same,AESI of muscular weakness considered possibly related to study drug,"[2]; human, in vivo",1 subject
same,"TEAE constipation, subjects","[2]; human, in vivo",31.7%
same,"TEAE nausea, subjects","[2]; human, in vivo",23.2%
same,number of subjects with ≥1 TEAE related to study drug,"[2]; human, in vivo",2 subjects
same,subjects who had ≥1 AESI,"[2]; human, in vivo",4 subjects
same,subjects with a moderate TEAE,"[2]; human, in vivo",12.2%
same,proportion of subjects who reported TEAEs,[2]; through POD14,54.9%

# Reference: US11918565B1, “Treatment of post-operative pain via sciatic nerve block with sustained-release liposomal anesthetic compositions” (Pacira Pharmaceuticals, Inc., priority 2022, dated 2024)
